Results from patent US20180213771A1, “COMPOSITION, METHOD FOR PRODUCING COMPOSITION, AND PESTICIDE COMPOSITION” (Sumitomo Chemical Company, Limited, priority 2015, published 2018).

Test: Water solubility of the agrochemical active compound alone at 25° C.
Format: physicochemical

Row | Compound | water solubility
1 | CC1CC(C)(C)c2cccc(NC(=O)c3cn(C)nc3C(F)F)c21 (centres unmarked) [agrochemical active compound A, N-(1,1,3-trimethylindan-4-yl)-1-methyl-3-difluoromethylpyrazole-4-carboxylic acid amide] | about 20 ppm
2 | CCS(=O)(=O)c1cccnc1-c1nc2cc(S(=O)(=O)C(F)(F)F)ccc2o1 [agrochemical active compound B, 2-[3-(Ethanesulfonyl)pyridin-2-yl]-5-(trifluoromethanesulfonyl)benzoxazole] | about 6 ppm
3 | Cc1cccc(-n2nnn(C)c2=O)c1COc1ccn(-c2ccc(Cl)cc2)n1 [agrochemical active compound C, 1-[2-({[1-(4-Chlorophenyl)-H-pyrazol-3-yl]oxy}methyl)-3-methylphenyl]-4-methyl-5-oxo-4,5-dihydro-1H-tetrazole] | about 0.03 ppm
4 | CCNc1nc(CC)c(C(=O)NC(C#N)c2cccs2)s1 (centres unmarked) [ethaboxam, reference compound] | about 5 ppm
5 | C#CCN1C(=O)COc2cc(F)c(N3C(=O)C4=C(CCCC4)C3=O)cc21 [flumioxazin, reference compound] | about 2 ppm
